Legend:
chick aortic ring = test: Chick aortic ring endothelial sprouting assay; type: cell-based
Method: Aortic arches were dissected from day-14 chick embryos, cut into cross-sectional fragments, and implanted in vitro in Matrigel using a modification of methods previously described (V. Muthukkaruppan, personal communication). When cultured in MCDB-131 medium supplemented with 5% fetal bovine serum, endothelial cells sprouted and vascular channel formation occurred within 24-48 hours.

liver regeneration = test: Hepatectomy model (liver regeneration); type: in vivo, C57BL/6J mice
Method: Male C57BL/6J mice underwent a partial hepatectomy through a midline incision after general anesthesia with isoflourane^33. Free or conjugated TNP-470 (30 mg/kg) were given s.c. every other day for 8 days beginning on the day of surgery according to the scheme described in FIG. 4a. Alternatively, the doses given were 60 mg/kg the day of surgery and 4 days later or 120 mg/kg once on the day of the partial hepatectomy. The liver was harvested on the 8th day, weighed and analyzed by histology.

A2058 human melanoma = test: Antitumor activity in SCID mice bearing s.c. A2058 human melanoma; type: in vivo
Description: Each group consisted of 5 mice.

[1] = system: murine, human and metastatic tumors; conditions: mice; mostly 30 mg/kg subcutaneously every other day; cited from earlier work
[2] = at doses where antitumor activity has been seen; cited from earlier work
[3] = cited from earlier work
LLC = test: Antitumor activity in C57BL/6J mice bearing s.c. LLC; conditions: 30 mg/kg q.o.d. (data not shown)
[4] = Early mouse development (body weight of newborn mice); conditions: injected into 7 and 17 day-old BALB/c mice
[5] = clinical pharmacokinetics, comparison value in words; cited from earlier work

CO[C@@H]1[C@H](OC(=O)NC(=O)CCl)CC[C@]2(CO2)[C@H]1[C@@]1(C)O[C@@H]1CC=C(C)C [TNP-470, O-(chloracetyl-carbamoyl) fumagillol]
effect on vascular sprouts (chick aortic ring; 50 pg/ml): reduced the number and length of vascular sprouts | effect on vascular sprouts (chick aortic ring; 100 pg/ml): completely prevented outgrowth | inhibition of liver regeneration (liver regeneration; 60 mg/kg every four days (q.4.d.)): did not inhibit liver regeneration | inhibition of liver regeneration (liver regeneration; single injection of 120 mg/kg on the day of hepatectomy): did not inhibit liver regeneration | T/C (mean tumor volume treated / untreated control) (A2058 human melanoma; 30 mg/kg TNP-equiv.): 0.34 | survival (A2058 human melanoma; free or conjugated TNP-470, 30 mg/kg TNP-equiv.): increased survival | inhibition of growth of human tumors [1]: up to 100% | inhibition of growth of metastatic tumors [1]: up to 100% | inhibition of growth of murine tumors [1]: up to 91% | adverse effects in patients [2]: neurotoxicity (malaise, rare seizures, asthenia, anxiety and dysphoria) | body weight in animals ([3]; animals receiving TNP-470): weight loss or failure to gain weight | toxicity to mice at the higher doses ([3]; doses of 60 and 90 mg/kg/q.o.d., mice): known to be toxic | splenic weight ([3]; two reports): decrease in splenic weight | weight loss (LLC): did | effect on growth / weight gain in normal development [4]: inhibited growth, by inhibiting weight gain

COc1cccc2c1C(=O)c1c(O)c3c(c(O)c1C2=O)C[C@@](O)(C(=O)CO)C[C@@H]3O[C@H]1C[C@H](N)[C@H](O)[C@H](C)O1 [doxorubicin]
t1/2α [5]: few minutes
